Test results taken from the supplement of paper PMC8671470.
± gives the standard deviation of the averaged measurements.

Tests used:
Conditions in all cases: 72 h
HL-60 [1] = assay: area under dose-response curve (viability, 1 nM-10 uM) (fraction (0-1)); higher = more sensitive
How it was run: (§1)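 HL-60 cells in RPMI 1640 with 10% FBS were rescreened against the full library on 384-well plates at five tenfold concentrations, 1–10,000 nM, in duplicate. Each screen was run with DMSO or 100 nM of one of three metabolic inhibitors, for 72 h at 37 °C, 5% CO2. Viability was read by CellTiter-Glo and normalised to DMSO and 10 μM proteasome-inhibitor wells. Where given, area under the curve came from four-parameter log-logistic fits (drc, PharmacoGx).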

MV4-11 [2] = test system: MV4-11
How it was run: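 The IC50 was derived from log-logistic dose–response fitting. Each of fifteen myeloid leukaemia cell lines, seeded in RPMI 1640 within its linear growth range, was exposed in 384-well plates to five tenfold doses (1 to 10,000 nM) in duplicate for 72 h at 37 °C and 5% CO2. Luminescent ATP viability readings were normalised to vehicle and to a positive control at 10 µM before four-parameter curve fitting.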

HL-60 [3] = assay: cell viability (% survival relative to DMSO control); higher = less cytotoxic
How it was run: as §1

HEL = assay: cell viability (% survival relative to DMSO control, bortezomib = 0%); higher = less cytotoxic
How it was run: (§2)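 Reported values are percent survival from duplicate wells, averaged. Fifteen myeloid leukaemia cell lines were treated in 384-well plates with compounds at 1, 10, 100, 1000 or 10000 nM for 72 h at 37 °C in 5% CO2. Signals from CellTiter-Glo luminescence were scaled with vehicle as 100% and a 10 µM positive control as 0%.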

MV4-11 [4] = assay: as above
How it was run: as §2

BV-173 = assay: as above
How it was run: as §2

MOLM-13 = assay: as above
How it was run: as §2

KU-812 = assay: as above
How it was run: as §2

NOMO-1 = assay: as above
How it was run: as §2

KG-1 = assay: as above
How it was run: as §2

HL-60 [5] = assay: as above
How it was run: as §2

KCL-22 = assay: as above
How it was run: as §2

LAMA-84 = assay: as above
How it was run: as §2

THP-1 = assay: as above
How it was run: as §2

ML-2 = assay: as above
How it was run: as §2

SHI-1 = assay: as above
How it was run: as §2

Mono-Mac-6 = assay: as above
How it was run: as §2

K-562 = assay: as above
How it was run: as §2

CC1(C)[C@@H](O[C@H]2O[C@H](C(=O)O)[C@@H](O)[C@H](O)[C@H]2O[C@@H]2O[C@H](C(=O)O)[C@@H](O)[C@H](O)[C@H]2O)CC[C@]2(C)[C@H]3C(=O)C=C4[C@@H]5C[C@@](C)(C(=O)O)CC[C@]5(C)CC[C@@]4(C)[C@]3(C)CC[C@@H]12 [Glycyrrhizin]
Conditions	area under dose-response curve, co-treatment: AZD3965 100 nM	area under dose-response curve, co-treatment: DMSO vehicle	area under dose-response curve, co-treatment: GSK2194069 100 nM	area under dose-response curve, co-treatment: pictilisib 100 nM	cell viability, 1 nM [%]	cell viability, 10 nM [%]	cell viability, 100 nM [%]	cell viability, 1000 nM [%]	cell viability, 10000 nM [%]
BV-173	–	–	–	–	88.9	109	117	95.4	83.4
HEL	–	–	–	–	99.8	108	107	109	84.8
HL-60 [1]	< 0.0301	< 0.0301	< 0.0301	< 0.0301	–	–	–	–	–
HL-60 [5]	–	–	–	–	74.5	101	113	103	98.7
K-562	–	–	–	–	88.7	87.5	102	91.6	83.4
KCL-22	–	–	–	–	89.9	95.3	105	99.3	97.2
KG-1	–	–	–	–	90	108	114	101	106
KU-812	–	–	–	–	87.4	92	107	99.6	84.3
LAMA-84	–	–	–	–	94.9	98.8	98.7	92.7	102
ML-2	–	–	–	–	101	110	104	114	99.5
MOLM-13	–	–	–	–	70.1	91.4	133	79.3	92.3
MV4-11 [4]	–	–	–	–	89	108	108	85.3	102
Mono-Mac-6	–	–	–	–	94.1	103	104	94.8	89
NOMO-1	–	–	–	–	97.5	107	103	100	93.4
SHI-1	–	–	–	–	95.5	100	114	105	97.2
THP-1	–	–	–	–	92.1	103	95.8	98.4	96.2

Conditions	IC50 (cell viability) [µM]
MV4-11 [2]	> 10

cell viability [%], HL-60 [3]
Conditions	0.001 µM	0.01 µM	0.1 µM	1 µM	10 µM
co-treatment: AZD3965 100 nM	103 ± 1.1	102 ± 6.2	102 ± 4	102.6 ± 0.12	105 ± 3.8
co-treatment: DMSO vehicle	102 ± 4.5	103 ± 1.6	95.5 ± 2.6	98.7 ± 3	101 ± 3
co-treatment: GSK2194069 100 nM	102 ± 6.3	100 ± 5.3	105 ± 10	110.4 ± 0.55	104 ± 3.1
co-treatment: pictilisib 100 nM	94 ± 8.3	99.5 ± 4.6	99.1 ± 9.6	97.7 ± 1.7	103 ± 2.7

CC(C)c1cc2c(c(O)c1O)[C@@]1(C(=O)O)CCCC(C)(C)[C@@H]1CC2 [Carnosic acid]
Conditions	area under dose-response curve, co-treatment: AZD3965 100 nM	area under dose-response curve, co-treatment: DMSO vehicle	area under dose-response curve, co-treatment: GSK2194069 100 nM	area under dose-response curve, co-treatment: pictilisib 100 nM	cell viability, 1 nM [%]	cell viability, 10 nM [%]	cell viability, 100 nM [%]	cell viability, 1000 nM [%]	cell viability, 10000 nM [%]
BV-173	–	–	–	–	87.5	96.7	98.2	82.6	43.8
HEL	–	–	–	–	100	112	92.1	100	97.4
HL-60 [1]	< 0.0301	< 0.0301	< 0.0301	< 0.0301	–	–	–	–	–
HL-60 [5]	–	–	–	–	99.7	97.3	89.3	91.5	109
K-562	–	–	–	–	105	93.4	89.4	87.4	83.2
KCL-22	–	–	–	–	101	104	73.1	103	90.7
KG-1	–	–	–	–	92.4	96	96	104	103
KU-812	–	–	–	–	94.3	100	89.4	92.6	74.1
LAMA-84	–	–	–	–	97.7	98	102	91.1	96.6
ML-2	–	–	–	–	93.4	105	85.9	94.5	67.6
MOLM-13	–	–	–	–	101	120	84.7	124	106
MV4-11 [4]	–	–	–	–	98.5	103	93.5	91.7	79.9
Mono-Mac-6	–	–	–	–	92.7	102	103	90.4	64.3
NOMO-1	–	–	–	–	96.5	100	96.9	99	102
SHI-1	–	–	–	–	101	112	95	112	108
THP-1	–	–	–	–	98.3	101	109	83.9	66.9

Conditions	IC50 (cell viability) [µM]
MV4-11 [2]	> 10

cell viability [%], HL-60 [3]
Conditions	0.001 µM	0.01 µM	0.1 µM	1 µM	10 µM
co-treatment: AZD3965 100 nM	98.3 ± 1.3	101 ± 5.2	117 ± 20	98.58 ± 0.66	100 ± 1.1
co-treatment: DMSO vehicle	96.16 ± 0.17	100.2 ± 0.6	99.2 ± 2.8	97.53 ± 0.66	103 ± 2.5
co-treatment: GSK2194069 100 nM	101 ± 5.3	89.4 ± 19	105 ± 5.3	99.3 ± 2.7	95.3 ± 2.3
co-treatment: pictilisib 100 nM	93.2 ± 7.5	102 ± 2.3	97.6 ± 10	96.1 ± 1.2	116 ± 11
